Source: patent US8933267B2, “Compounds for use as anti-ulcer agent and/or anti-Helicobacter pylori agent and pharmaceutical compositions thereof” (King Saud University, priority 2013, dated 2015)
Converted amounts (≈) assume the structure as drawn. Marks after values point to notes of the source that are not given here.

Tests used:
[1] = system: H. pylori clinical isolates KA1-KA7 and ATCC 43504; assay: Anti-Helicobacter pylori activity, disk diffusion method; format: cell-based; conditions: for susceptibility by disc diffusion (in words): all the isolates of H. pylori
Procedure: Clinical isolates were symbolized from KA1 to KA7. Isolates were grown in Brucella agar plates (Difco, Detroit, Mich., USA) containing 10% v/v sheep serum at 37° C. Identification was carried out using Gram stain and catalase, oxidase and urea hydrolysis activities. Helicobacter pylori ATCC 43504 was used as control. Determination of the amino acid-sulfanilamide hybrid activity against H. pylori was carried out using disk diffusion method (McNulty C, Owen R., Tompkins […]., Price A., Smith G. and […]. (2002). Helicobacter pylori susceptibility testing by disc diffusion. Journal of Antimicrobial Chemotherapy, 49: 601-609). The amino acid-sulfanilamide hybrid compound was dissolved in 2% Tween (v/v), in order to obtain final concentration of 2 mg/ml.

[2] = system: absolute alcohol-induced ulcer in rats; assay: Antiulcerogenic activity, absolute ethanol-induced ulcer model; format: in vivo, male Wistar rats
Procedure: Evaluation of the anti-ulcerogenic activity was carried out using absolute ethanol-induced ulcer model (Bighettia A. E., Antonio M. A., Kohna L. K., Rehdera V. L. G., Foglioa M. A., Possentia A., Vilelaa L., Carvalho J. E. (2005). Antiulcerogenic activity of a crude hydroalcoholic extract and coumarin isolated from Mikania laevigata Schultz Bip. Phytomedicine, 12, 72-77). Thirty male Wistar rats were divided into 5 groups each of 6 rats. Group 1 received the vehicle and served as control, group 2 received ranitidine (100 mg/kg) and served as standard, groups 3, 4 and 5 received the synthesized compound at doses 25, 50 and 100 mg/kg respectively.
Rats of all groups were fasted for 24 h then all medications were administered orally. One hour after treatment, the animals received an oral dose of absolute ethanol (1 ml/200 g) and then sacrificed one hour later, by ether inhalation, the stomachs were rapidly removed, opened along their greater curvature and gently rinsed under running tap water.
Number of lesions in the glandular part of the stomach were measured under an illuminated magnifying microscope (10×). Long lesions were counted and their lengths were measured. Petechial lesions were counted, and then each five petechial lesions were taken as 1 mm of ulcer.
The lesion scores: The mucosal lesions were quantified by the scoring system (0-5) 0=no damage, 1=Local edema and inflammation without ulcers; 2=One ulcer without inflammation; 3=one to two ulcers with inflammation & lesion diameter <1 cm; 4=More than two ulcers with lesion diameter 1-2 cm; 5=Sever ulceration with lesion diameter >2 cm (Morris et al., 1989).
Ulcer index: To calculate the ulcer index (mm), the sum of the total length of long ulcers and petechial lesions in each group of rats was divided by its number. The curative ratio was determined according to the formula: % Protection of control ulcer=Control UI−Test UI/Control UI×100

[3] = system: liver and kidney functions of rats; assay: Effect on liver and kidney functions; format: in vivo, Male Wister rats; conditions: 100 mg/kg orally for 15 days
Procedure: Male Wister rats were divided into 2 equal groups each of 10 rats. The 1st group was left as a control and administrated the vehicle orally, while the 2nd group was orally administrated the synthesized compound in a dose of 100 mg/kg for 15 days. After the examination period, 6 hr after the last dose blood samples were collected from the orbital plexus of rats. Samples were left to clot at room temperature for 30 min then centrifuged at 1000 rpm for 20 min. The collected sera were used for determination of the activity of both (AST) aspirate aminotransferase and (ALT) alanine aminotransferase as liver markers. In addition, levels of blood urea, serum creatinine were also estimated as kidney markers ([…]., Al-Jaber N. A., Moses […]. and Zain M. E. (2013). Antiulcerogenic Activities of the Extracts and Isolated Flavonoids of Euphorbia cuneata Vahl. Phytother. Res. 27: 126-130).

[4] = system: H. pylori clinical isolates KA1-KA7 and ATCC 43504; assay: Minimum inhibitory concentration (MIC), broth microdilution assay; format: cell-based; conditions: Helicobacter pylori
Procedure: A total of seven clinical isolates of H. pylori were isolated from 19 biopsies received from patients diagnosed with gastritis or peptic ulcer disease at Al-Kasr Al-Ainy hospital, Cairo, Egypt. Clinical isolates were symbolized from KA1 to KA7. Isolates were grown in Brucella agar plates (Difco, Detroit, Mich., USA) containing 10% v/v sheep serum at 37° C.
Identification was carried out using Gram stain and catalase, oxidase and urea hydrolysis activities. Helicobacter pylori ATCC 43504 was used as control.
The Minimum inhibitory concentration (MIC) was carried out by the broth microdilution assay (EUCAST, 2003). A total of 100 μL of BHI broth supplemented with 10% defibrinated sheep blood inoculated with 6×10^8 H. pylori (McFarland turbidity standard 2) and 100 μL A of serial dilutions of amino acid-sulfanilamide hybrid compound dissolved in 2% Tween (v/v) was added to each well in the microplate, to reach final concentrations of 12.5; 25; 50; 100; 200; 400 and 800 μg/ml. The microplate was incubated at 37° C. under microaerophilic conditions in an atmosphere of 5-15% O2 and 5-10% CO2, for 48-72 h. After incubation, the plates were visually examined, the optical density was determined at 450 nm and each well was replicated in blood agar (Mueller-Hinton agar with 5% sheep blood), to determine the MIC.

[5] = rat serum, 6 hr after last dose, mean ± SD, n=10

## CC1(C)S[C@@H]2[C@H](NC(=O)[C@H](N)c3ccc(O)cc3)C(=O)N2[C@H]1C(=O)O [Amoxicillin, amoxicillin]
[1]; H. pylori ATCC 43504, disk (30 μg)
  Inhibition zone: 33 mm
[1]; H. pylori KA1, disk (30 μg)
  Inhibition zone: 22 mm
[1]; H. pylori KA2, disk (30 μg)
  Inhibition zone: 23 mm
[1]; H. pylori KA3, disk (30 μg)
  Inhibition zone: 24 mm
[1]; H. pylori KA4, disk (30 μg)
  Inhibition zone: 23 mm
[1]; H. pylori KA5, disk (30 μg)
  Inhibition zone: 25 mm
[1]; H. pylori KA6, disk (30 μg)
  Inhibition zone: 26 mm
[1]; H. pylori KA7, disk (30 μg)
  Inhibition zone: 27 mm
[1]
  susceptibility by disc diffusion (in words): sensitive

## CC(C)CC(NCC(=O)Nc1ccc(S(N)(=O)=O)cc1)C(=O)O (stereo not shown) [Compound 5, 4-Methyl-2-[2-oxo-2-(4-sulfamoylphenylamino)ethylamino]pentanoic acid]
[2]; oral 25 mg/kg
  % protection (of control ulcer): 16.7%
  score (lesion score 0-5): 2.2
[2]; oral 25 mg/kg, mean, n=6
  no of ulcers: 11.1*
[2]; oral 50 mg/kg
  % protection (of control ulcer): 59%
  score (lesion score 0-5): 1.6
[2]; oral 50 mg/kg, mean, n=6
  no of ulcers: 8**
[2]; oral 100 mg/kg
  % protection (of control ulcer): 66.7%
  score (lesion score 0-5): 1.4
[2]; oral 100 mg/kg, mean, n=6
  no of ulcers: 6.2***
[2]; oral 25-100 mg/kg
  anti-ulcerogenic activity (in words): potent dose dependent anti-ulcerogenic activity
[3]; [5]
  ALT: 38.67 ± 0.22 U/l
  AST: 63.23 ± 0.39 U/l
  Creatinine: 0.85 ± 0.02 mg/dL
[3]; rats
  hepatotoxic manifestation: didn't reveal hepatotoxic manifestation
  nephrotoxic manifestations: no apparent nephrotoxic manifestations
[3]; rats, 6 hr after last dose, mean ± SD, n=10
  Blood Urea: 65.50 ± 1.9 mg/dL
[1]; H. pylori ATCC 43504, disk (2 mg)
  Inhibition zone: 16 mm
[1]; H. pylori KA1, disk (2 mg)
  Inhibition zone: 18 mm
[1]; H. pylori KA2, disk (2 mg)
  Inhibition zone: 15 mm
[1]; H. pylori KA3, disk (2 mg)
  Inhibition zone: 16 mm
[1]; H. pylori KA4, disk (2 mg)
  Inhibition zone: 15 mm
[1]; H. pylori KA5, disk (2 mg)
  Inhibition zone: 15 mm
[1]; H. pylori KA6, disk (2 mg)
  Inhibition zone: 17 mm
[1]; H. pylori KA7, disk (2 mg)
  Inhibition zone: 19 mm
[1]
  susceptibility by disc diffusion (in words): sensitive
[4]; ATCC43504, H. pylori ATCC 43504
  MIC: 50 µg/mL (≈ 146 µM)
[4]; ATCC43504, H. pylori KA1
  MIC: 50 µg/mL (≈ 146 µM)
[4]; ATCC43504, H. pylori KA2
  MIC: 50 µg/mL (≈ 146 µM)
[4]; ATCC43504, H. pylori KA3
  MIC: 50 µg/mL (≈ 146 µM)
[4]; ATCC43504, H. pylori KA4
  MIC: 50 µg/mL (≈ 146 µM)
[4]; ATCC43504, H. pylori KA5
  MIC: 50 µg/mL (≈ 146 µM)
[4]; ATCC43504, H. pylori KA6
  MIC: 25 µg/mL (≈ 72.8 µM)
[4]; ATCC43504, H. pylori KA7
  MIC: 12.5 µg/mL (≈ 36.4 µM)

## CC[C@H]1OC(=O)[C@H](C)[C@@H](O[C@H]2C[C@@](C)(OC)[C@@H](O)[C@H](C)O2)[C@H](C)[C@@H](O[C@@H]2O[C@H](C)C[C@H](N(C)C)[C@H]2O)[C@](C)(O)C[C@@H](C)C(=O)[C@H](C)[C@@H](O)[C@]1(C)O [Erythromycin, erythromycin]
[1]; H. pylori ATCC 43504, disk (15 μg)
  Inhibition zone: 29 mm
[1]; H. pylori KA1, disk (15 μg)
  Inhibition zone: 21 mm
[1]; H. pylori KA2, disk (15 μg)
  Inhibition zone: 22 mm
[1]; H. pylori KA3, disk (15 μg)
  Inhibition zone: 24 mm
[1]; H. pylori KA4, disk (15 μg)
  Inhibition zone: 23 mm
[1]; H. pylori KA5, disk (15 μg)
  Inhibition zone: 21 mm
[1]; H. pylori KA6, disk (15 μg)
  Inhibition zone: 25 mm
[1]; H. pylori KA7, disk (15 μg)
  Inhibition zone: 24 mm
[1]
  susceptibility by disc diffusion (in words): sensitive

## CNC(=C[N+](=O)[O-])NCCSCc1ccc(CN(C)C)o1 [Ranitidine, ranitidine, reference compound]
[2]; oral 100 mg/kg
  % protection (of control ulcer): 45.05%
  score (lesion score 0-5): 2.2
[2]; oral 100 mg/kg, mean, n=6
  no of ulcers: 6.9***
  ulcer index: 6.0* mm
